# Assay results published in ChEMBL document CHEMBL5727966, “Compositions and methods for treating disorders of circadian and diurnal rhythms using prokineticin 2 agonists and antagonists” (2020).
# Assay: Aequorin-Based Luminescent Assay : An aequorin-based luminescent assay for calcium mobilization was used to measure mobilization of intracellular Ca2+ (Bullock et al., Mol Pharmacol 65, 582-588, 2004). Chinese hamster ovary (CHO) cells stably expressing photoprotein aequorin and recombinant PKR1 or PKR2 were tested by this method. Briefly, the cells were charged in Opti-MEM™ (Invitrogen) containing 8 μM of coelenterazine cp at 37° C. for 2 hours. Cells were detached by brief trypsinization and maintained in Hank's Balanced Salt Solution (HBSS) plus 10 mM HEPES (pH7.5) and 0.1% BSA at about 5×10^5 cells/ml. Luminescence measurements were made using a Berthold luminometer.All compounds were diluted in HBSS plus 10 mM HEPES (pH7.5) and 0.1% BSA. To test the agonist activity, 100 μl of cells were injected into the tubes with 20 μl of compounds. For antagonist assays, 80 μl cells were incubated in the tubes with 20 μl different concentrations of antagonists at room temperature for 20 minutes, and then 100 μl of recombinant PK2 were injected. The IC50 obtained from the assays were then converted to Ki values using the formula: IC50/(1+[PK2]/EC50PK2).
# Type: cell-based
compound,measurement,value
CC(C)CN(Cc1cc(Cl)c2c(c1)OCCCO2)C(=O)C1CN(Cc2cccc3nc[nH]c23)CCO1 (stereo unspecified),Ki,8.4 nM
